This is an account of results in PubChem BioAssay (NCI).

Holding throughout (test): NCI tumour cell line growth inhibition, 48 h
The test system of test [1] is OVCAR-3 ovarian.
Test [2] concerns LXFL 529 NSCLC.
For test [3], the system named is UO-31 renal.
For test [4], the system named is HCC-2998 colon.
Test [5] deals with DMS 114 small cell lung.
Test [6] concerns HL-60(TB) leukemia.
Test [7] relates to SK-MEL-5 melanoma.
The test system of test [8] is HOP-62 NSCLC.
The subject of test [9] is ACHN renal.
In test [10] the test system is MDA-MB-231 breast.

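Tested at 5 concentrations; 48 h exposure; 96-well plates; endpoints linearly interpolated, else capped at highest concentration. GI50 = concentration required for 50% inhibition of growth. TGI is the concentration that stops growth completely.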 A value given as a limit tells only on which side of the number the result lay.

As to `Clc1ccc2ns[s+]c2c1`, the TGI in [1] is greater than 100 µM; in test [2], greater than 100 µM; in [3] it was greater than 66.8 µM; in [4], greater than 100 µM; in test [5], greater than 100 µM; in [6], greater than 77.9 µM. Besides, the TGI in [7] is greater than 96.2 µM; in test [8], greater than 29.9 µM; in [9] it was greater than 94.3 µM; in test [10] it was greater than 100 µM.

Consider `CCOC(=O)C1=C(Nc2ccc(Cl)c(Cl)c2)OC/C1=N\NC(=O)Cc1ccccc1`, for which the TGI in test [1], in test [2], in [3], in test [4], in [5] and in test [6] was greater than 100 µM each time. For the same compound, the TGI in [7] and in test [8] was greater than 100 µM throughout.

For `Clc1ccc2c(c1)[nH]c1c2nc2sccn21`, the TGI in test [1], in [2], in test [3], in test [4], in [5] and in test [6] was greater than 100 µM throughout. In addition, the TGI in [7], in test [8] and in test [9] was greater than 100 µM in each case.

Consider `COc1ccccc1NC(=O)C1=C(C)NC(C)=C(C(=O)Nc2ccccc2OC)C1c1ccc(N(C)C)cc1`, for which the TGI in [1] is 44.1 µM; in test [2] it was greater than 100 µM; in [3], greater than 100 µM; in test [4] it was 38.2 µM; in test [5], 65.6 µM; in test [6], 40.7 µM. For the same compound, the TGI is 96.7 µM in test [7], 57.2 µM in test [8] and greater than 100 µM in [9].

Take `NC(=O)c1csc(C2CCC(CO)O2)n1` (stereo unspecified): the TGI in test [1], in [2], in test [3], in [4], in [5] and in test [6] was greater than 100 µM in each case. Also, the TGI in test [8] and in test [9] was greater than 100 µM throughout.

Turning to `COC(=O)c1ccc(C(=O)OC)c2nc3cc(C)ccc3nc12`, the TGI in [1], in test [2], in test [3], in test [4], in test [5] and in test [6] was greater than 100 µM each time. Besides, the TGI in [7], in [8] and in [9] was greater than 100 µM in each case.

Turning to `COc1cc(/C=C/c2ccc(OC)c(OC)c2OC)cc(OC)c1OC`, the TGI in [1] is 39.3 µM; in test [2], 54.9 µM; in test [3], 46.3 µM; in test [4], 18.6 µM; in [5], 60.9 µM; in [6] it was greater than 68 µM. The TGI in test [7] is 28.5 µM; in test [8], 32.9 µM; in [9], greater than 92.2 µM.

Take `ClCc1ccc(C2OCCO2)cc1`: the TGI in [1] was 49.2 µM; in test [2], 37.2 µM; in test [3], greater than 56.2 µM; in test [4] it was 32 µM; in test [5] it was greater than 42.9 µM; in test [6], 12.5 µM. Further, the values for the TGI in [7], in [8] and in [9] were greater than 55.5 µM, 41.2 µM and greater than 62 µM, respectively.

Take `COC(=O)[C@H]1N[C@@H](C(=O)OC)C23CCC[C@H]2CC[C@]1(C(OC)OC)C3`: the TGI in test [2], in test [3], in test [4], in test [5], in test [6] and in test [7] was greater than 100 µM in each case. In addition, the TGI in test [8] and in test [9] was greater than 100 µM throughout.

With `O=C(CSc1nc(-c2ccccc2)c(-c2ccccc2)[nH]1)NNC(=S)Nc1ccccc1`, the TGI in test [1], in test [2], in test [3], in test [4], in test [5] and in [6] was greater than 100 µM throughout. Also, the TGI in [7], in test [8] and in [9] was greater than 100 µM in each case.

As for `O=c1cc(-c2ccccn2)[nH]c2cc(F)ccc12`, the TGI in test [1], in test [2], in [3], in test [4], in test [5] and in [6] was greater than 100 µM in each case. In addition, the TGI in [7], in [8] and in [9] was greater than 100 µM throughout. Also, in test [5], the GI50 is 52.4 µM.

Regarding `COc1ccc2ccccc2c1CN1CCOCCOCCN(Cc2c(OC)ccc3ccccc23)CCOCCOCC1`, the TGI is greater than 100 µM in test [1]; greater than 100 µM in test [2]; greater than 100 µM in test [3]; 35.3 µM in test [4]; greater than 100 µM in [5]; 53.4 µM in test [6]. Besides, the results for the TGI in [7], in test [8] and in test [9] were greater than 53.6 µM, greater than 100 µM and greater than 100 µM, respectively.

Take `COC(=O)[C@]1(C)C(OC)=CC(=O)C2C1[C@H]1CCC[C@@H]21` (stereo partly specified): the TGI in test [1], in test [2], in test [3], in [4], in [5] and in [6] was greater than 100 µM each time. In addition, the TGI in test [7], in [8] and in test [9] was greater than 100 µM throughout.
